Test results from ChEMBL document CHEMBL1201862, “PubChem BioAssay data set” (2004).
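In this assay, cells in 96-well plates receive the compound at five concentrations for 48 hours. Endpoints are linearly interpolated between the surrounding concentrations. GI50: concentration for 50% inhibition of growth.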 Calls of active or inactive are those of the source. Cut-off read from the data, not from the text of the source: active = GI50 up to about 1.1 µM and inactive = higher.

Assays:
Assay in all cases: NCI tumour cell line growth inhibition, 48 h
NCI-H460 = tested on: NCI-H460
OVCAR-3 = tested on: OVCAR-3
IGROV-1 = tested on: IGROV-1
HT-29 = tested on: HT-29
UACC-257 = tested on: UACC-257
HL-60 = tested on: HL-60
MDA-MB-435 = tested on: MDA-MB-435
SK-MEL-2 = tested on: SK-MEL-2
MDA-N = tested on: MDA-N
SF-268 = tested on: SF-268
KM12 = tested on: KM12
CAKI-1 = tested on: CAKI-1
UO-31 = tested on: UO-31
OVCAR-8 = tested on: OVCAR-8
SNB-75 = tested on: SNB-75
MOLT-4 = tested on: MOLT-4
U-251 = tested on: U-251
CCRF-CEM = tested on: CCRF-CEM
A498 = tested on: A498
K562 = tested on: K562

Measured: GI50

CCOc1ccc2nc(NC(=O)C(=O)C3C(=O)C(CC4C(=O)c5ccccc5C4=O)C(=O)CC3(C)C)sc2c1 (stereo not given)
inactive: NCI-H460 > 100 µM | OVCAR-3 66.7 µM | IGROV-1 44 µM | HT-29 > 100 µM | UACC-257 > 100 µM | HL-60 20.3 µM | MDA-MB-435 > 100 µM | SK-MEL-2 > 100 µM | MDA-N > 100 µM | SF-268 > 100 µM | KM12 > 100 µM | CAKI-1 80 µM | UO-31 18.9 µM | OVCAR-8 > 100 µM | SNB-75 > 100 µM | MOLT-4 13.5 µM | U-251 > 100 µM | CCRF-CEM 30.8 µM

CC(C)[Si](OC1=C(C(=O)N(C)c2ccccc2Cl)CCCCC1)(C(C)C)C(C)C
inactive: A498 > 100 µM | NCI-H460 > 100 µM | OVCAR-3 > 100 µM | IGROV-1 > 100 µM | HT-29 > 100 µM | UACC-257 > 100 µM | MDA-MB-435 > 100 µM | MDA-N > 100 µM | SF-268 > 100 µM | KM12 > 100 µM | CAKI-1 > 100 µM | UO-31 > 100 µM | OVCAR-8 > 100 µM | SNB-75 > 100 µM | MOLT-4 > 100 µM | U-251 > 100 µM

O=C(Nc1ccccn1)/C(=C\C(=O)c1ccc(Cl)cc1)Nc1ccccc1
inactive: IGROV-1 > 10 µM | HT-29 > 10 µM | UACC-257 > 10 µM | HL-60 > 10 µM | MDA-MB-435 > 10 µM | MDA-N > 10 µM | SF-268 > 10 µM | KM12 > 10 µM | CAKI-1 > 10 µM | K562 > 10 µM | OVCAR-8 > 10 µM | SNB-75 5.68 µM | MOLT-4 > 10 µM | CCRF-CEM > 10 µM

COc1ccc2c(c1)CCc1c-2n(CCN2CCOCC2)c2ccc(OC)cc12
active: SNB-75 0.0515 µM
inactive: A498 > 100 µM | NCI-H460 40.5 µM | OVCAR-3 > 100 µM | IGROV-1 80.2 µM | HT-29 16.1 µM | UACC-257 > 100 µM | MDA-MB-435 > 100 µM | SK-MEL-2 > 100 µM | MDA-N 94.2 µM | SF-268 > 100 µM | KM12 18.8 µM | CAKI-1 > 100 µM | UO-31 > 100 µM | K562 14.8 µM | OVCAR-8 > 100 µM | MOLT-4 12.5 µM | U-251 > 100 µM | CCRF-CEM 16.4 µM

C[C@@H]1C(=O)CC2(O)[C@@]13C[C@@H](OC(=O)[C@@H]3O)[C@@H](C)[C@@]21COC1=O (stereo not given in full)
inactive: NCI-H460 > 100 µM | OVCAR-3 > 100 µM | IGROV-1 > 100 µM | HT-29 > 100 µM | UACC-257 > 100 µM | HL-60 > 100 µM | MDA-MB-435 > 100 µM | SK-MEL-2 > 100 µM | MDA-N > 100 µM | SF-268 > 100 µM | KM12 > 100 µM | UO-31 > 100 µM | K562 > 100 µM | OVCAR-8 > 100 µM | SNB-75 > 100 µM | MOLT-4 > 100 µM | U-251 > 100 µM | CCRF-CEM > 100 µM

CC1=C[C@H](O)[C@@]2(C)[C@@H]([C@@H]1C)[C@H]1CC[C@@H]3[C@@]4(C)CC[C@H](O)C(C)(C)[C@@H]4CC[C@@]3(C)[C@]1(C)C[C@@H]2O
inactive: NCI-H460 18.9 µM | OVCAR-3 16.8 µM | IGROV-1 20.5 µM | HT-29 13.8 µM | UACC-257 20.1 µM | MDA-MB-435 20.7 µM | SK-MEL-2 23.3 µM | MDA-N 15.8 µM | SF-268 10.5 µM | KM12 22.1 µM | CAKI-1 20.8 µM | UO-31 18.6 µM | K562 19.6 µM | OVCAR-8 20.6 µM | MOLT-4 13.7 µM | U-251 20 µM | CCRF-CEM 16.9 µM

CN1CCC2(CC1)SSC1(CCN(C)CC1)S2
inactive: NCI-H460 > 100 µM | HT-29 > 100 µM | UACC-257 > 100 µM | HL-60 > 100 µM | MDA-MB-435 > 100 µM | SK-MEL-2 > 100 µM | MDA-N > 100 µM | KM12 > 100 µM | UO-31 > 100 µM | K562 > 100 µM | OVCAR-8 > 100 µM | SNB-75 > 100 µM | MOLT-4 > 100 µM | U-251 > 100 µM | CCRF-CEM > 100 µM

O=C(Nc1ccccc1)c1cc2ccccc2c(/N=N\c2cccc([N+](=O)[O-])c2)c1O
inactive: A498 > 100 µM | NCI-H460 > 100 µM | OVCAR-3 > 100 µM | IGROV-1 37.7 µM | HT-29 > 100 µM | UACC-257 > 100 µM | MDA-MB-435 > 100 µM | SK-MEL-2 > 100 µM | MDA-N > 100 µM | SF-268 48.6 µM | KM12 > 100 µM | CAKI-1 > 100 µM | UO-31 > 100 µM | K562 89.3 µM | OVCAR-8 78.2 µM | SNB-75 33.5 µM | MOLT-4 > 100 µM | U-251 24.6 µM | CCRF-CEM > 100 µM

CCOC(=O)CSc1[nH]c(NC(=S)Nc2ccccc2)c(C(N)=O)c1C(N)=O
inactive: IGROV-1 > 10 µM | HT-29 > 10 µM | UACC-257 > 10 µM | HL-60 2.32 µM | MDA-MB-435 > 10 µM | MDA-N > 10 µM | SF-268 > 10 µM | KM12 > 10 µM | CAKI-1 > 10 µM | K562 > 10 µM | OVCAR-8 > 10 µM | SNB-75 > 10 µM | MOLT-4 6.21 µM | CCRF-CEM 4.95 µM

COC(=O)CCCC(=O)O
inactive: A498 > 100 µM | NCI-H460 > 100 µM | OVCAR-3 > 100 µM | IGROV-1 > 100 µM | HT-29 > 100 µM | UACC-257 > 100 µM | MDA-MB-435 > 100 µM | SK-MEL-2 > 100 µM | MDA-N > 100 µM | SF-268 > 100 µM | KM12 > 100 µM | CAKI-1 > 100 µM | UO-31 > 100 µM | OVCAR-8 > 100 µM | SNB-75 > 100 µM | MOLT-4 > 100 µM | U-251 > 100 µM

CC1(C)/C(=N\Nc2ccc([N+](=O)[O-])cc2[N+](=O)[O-])C2CCC1C2 (stereo not given)
inactive: NCI-H460 > 100 µM | OVCAR-3 > 100 µM | IGROV-1 > 100 µM | HT-29 > 100 µM | UACC-257 19.3 µM | HL-60 > 100 µM | MDA-MB-435 > 100 µM | SK-MEL-2 > 100 µM | MDA-N > 100 µM | SF-268 > 100 µM | KM12 30.1 µM | CAKI-1 > 100 µM | UO-31 > 100 µM | K562 > 100 µM | OVCAR-8 > 100 µM | SNB-75 3.34 µM | MOLT-4 > 100 µM | U-251 > 100 µM | CCRF-CEM > 10 µM

COC(=O)C1=CC(=O)OC1(OO)c1ccc(Br)cc1 (stereo not given)
inactive: NCI-H460 > 100 µM | OVCAR-3 > 100 µM | IGROV-1 > 100 µM | HT-29 57.4 µM | UACC-257 > 100 µM | HL-60 40.3 µM | MDA-MB-435 > 100 µM | SK-MEL-2 > 100 µM | MDA-N > 100 µM | KM12 > 100 µM | CAKI-1 > 100 µM | UO-31 > 100 µM | K562 33.7 µM | OVCAR-8 > 100 µM | SNB-75 > 100 µM | MOLT-4 31.8 µM | U-251 > 100 µM | CCRF-CEM 27 µM

O=c1oc2ccc(Cl)cc2cc1-c1cn2ccsc2n1
inactive: NCI-H460 49.9 µM | OVCAR-3 40 µM | IGROV-1 20.5 µM | HT-29 52.8 µM | UACC-257 95.1 µM | HL-60 32.3 µM | MDA-MB-435 40.8 µM | SK-MEL-2 50.6 µM | MDA-N 46 µM | SF-268 46.6 µM | KM12 42.4 µM | CAKI-1 42.8 µM | UO-31 34.3 µM | K562 33.5 µM | OVCAR-8 29.4 µM | SNB-75 > 100 µM | MOLT-4 24.4 µM | U-251 51.9 µM | CCRF-CEM 25.8 µM

OCCN(CCO)c1nc(N2CCCCC2)c2nc(N(CCO)CCO)nc(N3CCCCC3)c2n1 [DIPYRIDAMOLE]
inactive: NCI-H460 28 µM | OVCAR-3 12.4 µM | IGROV-1 66.7 µM | HT-29 19.5 µM | UACC-257 39.3 µM | HL-60 15.7 µM | MDA-MB-435 69.7 µM | SK-MEL-2 34.6 µM | MDA-N 45.8 µM | KM12 43 µM | CAKI-1 45.5 µM | UO-31 33 µM | K562 24.8 µM | OVCAR-8 29.2 µM | MOLT-4 24.4 µM | CCRF-CEM 20 µM

COC(=O)C1(CCC(C)=O)CCCCCC1=O (stereo not given)
inactive: A498 > 100 µM | NCI-H460 > 100 µM | OVCAR-3 > 100 µM | IGROV-1 > 100 µM | HT-29 > 100 µM | UACC-257 > 100 µM | MDA-MB-435 > 100 µM | SK-MEL-2 > 100 µM | MDA-N > 100 µM | SF-268 > 100 µM | KM12 > 100 µM | CAKI-1 > 100 µM | UO-31 > 100 µM | K562 > 100 µM | SNB-75 > 100 µM | MOLT-4 > 100 µM | U-251 > 100 µM

Nc1nc(SCCc2ccccc2)c2nc[nH]c2n1
inactive: A498 19.1 µM | NCI-H460 33.9 µM | OVCAR-3 45.1 µM | IGROV-1 51.1 µM | HT-29 41.1 µM | UACC-257 23.7 µM | MDA-MB-435 81.7 µM | SK-MEL-2 30.7 µM | MDA-N 55.7 µM | SF-268 46.6 µM | KM12 > 100 µM | CAKI-1 61.9 µM | UO-31 60.7 µM | K562 48.1 µM | OVCAR-8 95.9 µM | SNB-75 33 µM | MOLT-4 33.6 µM | U-251 58.5 µM | CCRF-CEM 31.2 µM
